# Tested on: scentless chamomile
# Assay: Test E scentless chamomile
# Format: in vivo, Matricaria inodora
# Conditions: Preemergence
structure (smiles),measurement,setting,value
CCn1c(=O)on(C(=O)N(c2ccc(Cl)cc2)C(C)C)c1=O [Compound 108],"Plant response rating, Scentless chamo","Rate 62 g/ha, 0 to 100 scale, 0 no effect, 100 complete control",50
same,"Plant response rating, Scentless chamo","Rate 125 g/ha, 0 to 100 scale (0 no effect, 100 complete control)",60
same,"Plant response rating, Scentless chamo","Rate 250 g/ha, 0 to 100 scale",80

# Reference: patent publication US6737383B1, “Herbicidal oxadiazolidines” (priority 1999, dated 2004)
